Laboratory results reported in US20230210819A1, “USE OF BENZISOSELAZOLE DERIVATIVE FOR ANTI-CORONAVIRUS AND CONTROL OF INTERSTITIAL LUNG DISEASE (ILD) RELATED TO CORONAVIRUS” (SHANGHAI YUANXI MEDICINE CORP., priority 2020, published 2023).

Columns and labels:
Format in all cases: in vivo, C57 mice
[1] = system: bleomycin-induced mouse lung disease model; test: Lung and spleen coefficients, 24-h modeling
Method: (§1) Animals of 24-h modeling were randomly divided into 5 groups according to the table below, 3 animals per control group and 5 animals per test group.
(§2) Drug administration began 24 h or 7 d after modeling. […] The day of the first administration was counted as D1, the next day as D2, and so forth. The normal groups and Model groups were given 200 µL of normal saline daily by gavage administration.
Method: after being euthanized, the animals were dissected, and the heart, liver, spleen, lung and kidney were weighed.
In this experiment, 105 C57 mice were randomly selected and subjected to organ drip administration of a single dose of bleomycin at 2.5 mg/kg for 24 h or 7 d for induction. After 7 days of induction, 3 model mice were randomly selected and dissected to determine whether the modeling was successful. After modeling, the survival of the mice was recorded. The living states of the mice were observed and their body weight was measured at a fixed time.
A normal control group comprised 3 mice.

[2] = system: bleomycin-induced mouse lung disease model; test: Blood gas analysis, 7-d modeling; details: for BEect / HCO3^- / PCO2: arterial blood after administration ended
Method: (§3) Animals of 7-d modeling were randomly divided into 7 groups according to the table below, 6 animals per control group and 12 animals per test group.
as §2
1. After being anaesthetized, a mouse was fixed to a board in a supine position.
2. After the skin was disinfected with alcohol, a midline cut of about 1.5 cm was made downward in the skin of the neck. The connective tissue between the sternohyoid muscle and the stemothyroid muscle was separated along the anterior border of the sternomastoid muscle with a tissue forceps. The pulsating common carotid artery could be seen on the deep right side of the trachea. A common carotid artery of about 1.5 cm in length was separated. The distal end was ligated with silk thread, and the proximal end was clipped with an artery clip and threaded with a silk thread for later use. The mouse board was placed under a dissecting microscope, and a V-shaped centripetal incision was gently made in a site near the distal end of the artery with a microscopy scissor. A PE microcatheter was inserted into the artery and fixed by making a knot with silk thread. The artery clip was removed, and 0.1-0.2 mL of blood was collected with a 1 mL syringe. The proximal end was clipped with an artery clip, and the syringe was removed. The blood was immediately analyzed on an AbboTTi-STAT blood gas microanalyzer.
In a blood gas analysis, the H^+ concentration in the blood and gases (mainly CO2 and O2) dissolved in the blood can be determined to directly reflect the function of pulmonary ventilation and the acid-base balance state. They are used to determine in the organism whether the acid-base balance is upset, whether anoxia occurred, the level of anoxia, and so forth.

[3] = system: inflammatory cells in bronchoalveolar lavage fluid; test: Inflammatory cell assay of bronchoalveolar lavage fluid, 7-d modeling
Method: as §3, §2
After the mouse was fixed, its trachea and chest cavity were exposed, and the trachea and the esophagus were bluntly separated with an ophthalmic curved forceps. Two sutures were made between the trachea and the esophagus. An intravenous trocar was inserted into the trachea and ligated at the site where it entered the trachea and at its distal end. A 1 mL syringe was connected to draw in 1 mL of pre-cooled PBS and infuse it into the lung tissue. Significant filling in the lung could be seen with the naked eye. The syringe was held for 10 s and withdrawal was performed. The infusion/withdrawal cycle was repeated 3 times. The withdrawn BALF was transferred to a clean EP tube and centrifuged at 4° C., and the supernatant was collected and preserved at -80° C. The cells were subjected to routine tests.
Upon the end of the administration, the leukocytes (lymphocytes, neutrophils and monocytes) in the bronchoalveolar lavage fluids of the mice in the 7-d modeling groups were classified and counted.

[4] = system: bleomycin-induced mouse lung disease model; test: Assay of lung tissues for hydroxyproline content, 24-h modeling; details: day 35 of administration
Method: as §1, §2
[…] 2 mL of pre-cooled normal saline was added. The tissues were cut into as many pieces as possible and centrifuged at 2000 rpm/min for 2 min, and the supernatant was discarded. • 2. To the precipitate was added 1 mL of RIPA lysis buffer (mixed protease inhibitor Cocktail was added in a ratio of 1:100 before use, and the resulting mixture was preserved on ice). […]
(II) Protein concentration assay by BCA • 1. […] A proper BCA working solution was freshly prepared according to the quantity of the standard substance and samples. […] The plate was incubated at 37° C. for 30 min, and the absorbance at 570 nm was measured on a microplate reader. The sample protein concentration was calculated from the standard curve.
(III) HYP level assay • 1. […] To each well was added 50 µL of terminating solution, and the absorbance was immediately measured at a wavelength of 450 nm. […]

[5] = Dex 1-1.5 mg/kg i.p. every two days

How did the Lung coefficient ([1]; BS 90 mg/kg gavage daily) turn out when `O=c1c2ccccc2[se]n1CCCCn1[se]c2ccccc2c1=O` [BS, 1,4-[bis(1,2-benzisoselenazol-3(2H)-one)]butane] was run?
The Lung coefficient was 0.89±0.04%.

And the Spleen coefficient ([1]; BS 90 mg/kg gavage daily)?
Its Spleen coefficient is 0.37±0.02%.

And the “Effect on spleen coefficient (in words)” value ([1]; BS 90 mg/kg, effect better than that of Dex)?
The value was “significantly decrease the spleen coefficient”.

What about the “Effect on blood gas analysis (in words)” value ([2]; BS 90 mg/kg and 180 mg/kg, better than Dex (1-1.5 mg/kg) in general) of the same molecule?
The value was “significant improvements to the function of pulmonary ventilation and the acid-base balance states”.

And the BEect ([2]; BSH: BS 180 mg/kg gavage daily)?
Its BEect is -8.00 ± 1.10 mmol/L.

What about the “HCO3^-” value ([2]; BSH: BS 180 mg/kg gavage daily) of the same molecule?
Its value is 27.82 ± 0.91 mmol/L.

What about the PCO2 ([2]; BSH: BS 180 mg/kg gavage daily) of the same molecule?
Its PCO2 is 32.82±2.02 mmHg.

What about the BEect ([2]; BSL: BS 36 mg/kg gavage daily) of the same molecule?
Its BEect is -15.67 ± 4.13 mmol/L.

What about the “HCO3^-” value ([2]; BSL: BS 36 mg/kg gavage daily) of the same molecule?
Its value is 22.30 ± 1.51 mmol/L.

What about the PCO2 ([2]; BSL: BS 36 mg/kg gavage daily) of the same molecule?
The PCO2 was 27.45±1.35 mmHg.

What about the BEect ([2]; BSM: BS 90 mg/kg gavage daily) of the same molecule?
The BEect was -9.83 ± 0.75 mmol/L.

What about the “HCO3^-” value ([2]; BSM: BS 90 mg/kg gavage daily) of the same molecule?
Its value is 30.57 ± 1.42 mmol/L.

And the PCO2 ([2]; BSM: BS 90 mg/kg gavage daily)?
The PCO2 was 31.62±1.34 mmHg.

And the “Effect on pulmonary inflammation (in words)” value ([3]; BS 180 mg/kg, better than Dex (1-1.5 mg/kg))?
The value was “significantly ameliorate pulmonary inflammation”.

What about the “Absolute leukocyte count in bronchoalveolar lavage fluid” value (shortened to “Absolute leukocyte count”) ([3]; BSH: BS 180 mg/kg gavage daily) of the same molecule?
The value was 0.43±0.04 10^9/L.

And the “Absolute lymphocyte count in bronchoalveolar lavage fluid” value (“Absolute lymphocyte count” for short) ([3]; BSH: BS 180 mg/kg gavage daily)?
Its value is 0.34±0.03 10^9/L.

What about the “Absolute monocyte count in bronchoalveolar lavage fluid” value (“Absolute monocyte count” for short) ([3]; BSH: BS 180 mg/kg gavage daily) of the same molecule?
The value was 0.02±0.00 10^9/L.

And the “Absolute neutrophil count in bronchoalveolar lavage fluid” value (shortened to “Absolute neutrophil count”) ([3]; BSH: BS 180 mg/kg gavage daily)?
The value was 0.02±0.01 10^9/L.

What about the “Percent reduction in leukocytes in bronchoalveolar lavage fluid with respect to the Model group” value (from here on “Percent reduction in leukocytes”) ([3]; BSH: BS 180 mg/kg gavage daily) of the same molecule?
Its value is 58.39%.

And the “Percent reduction in lymphocytes in bronchoalveolar lavage fluid with respect to the Model group” value (shortened to “Percent reduction in lymphocytes”) ([3]; BSH: BS 180 mg/kg gavage daily)?
The value was 60.73%.

And the “Percent reduction in monocytes in bronchoalveolar lavage fluid with respect to the Model group” value (“Percent reduction in monocytes” for short) ([3]; BSH: BS 180 mg/kg gavage daily)?
Its value is 57.14%.

What about the “Percent reduction in neutrophils in bronchoalveolar lavage fluid with respect to the Model group” value (from here on “Percent reduction in neutrophils”) ([3]; BSH: BS 180 mg/kg gavage daily) of the same molecule?
The value was 74.07%.

And the “Absolute leukocyte count” value ([3]; BSL: BS 36 mg/kg gavage daily)?
The value was 0.87±0.04 10^9/L.

And the “Absolute lymphocyte count” value ([3]; BSL: BS 36 mg/kg gavage daily)?
The value was 0.70±0.03 10^9/L.

And the “Absolute monocyte count” value ([3]; BSL: BS 36 mg/kg gavage daily)?
The value was 0.04±0.01 10^9/L.

And the “Absolute neutrophil count” value ([3]; BSL: BS 36 mg/kg gavage daily)?
Its value is 0.08±0.01 10^9/L.

And the “Percent reduction in leukocytes” value ([3]; BSL: BS 36 mg/kg gavage daily)?
Its value is 16.29%.

What about the “Percent reduction in lymphocytes” value ([3]; BSL: BS 36 mg/kg gavage daily) of the same molecule?
Its value is 19.54%.

What about the “Percent reduction in monocytes” value ([3]; BSL: BS 36 mg/kg gavage daily) of the same molecule?
Its value is 25.00%.

What about the “Percent reduction in neutrophils” value ([3]; BSL: BS 36 mg/kg gavage daily) of the same molecule?
The value was 7.41%.

And the “Absolute leukocyte count” value ([3]; BSM: BS 90 mg/kg gavage daily)?
The value was 0.69±0.06 10^9/L.

And the “Absolute lymphocyte count” value ([3]; BSM: BS 90 mg/kg gavage daily)?
The value was 0.56±0.05 10^9/L.

And the “Absolute monocyte count” value ([3]; BSM: BS 90 mg/kg gavage daily)?
The value was 00.3±0.01 10^9/L.

What about the “Absolute neutrophil count” value ([3]; BSM: BS 90 mg/kg gavage daily) of the same molecule?
Its value is 0.08±0.01 10^9/L.

What about the “Percent reduction in leukocytes” value ([3]; BSM: BS 90 mg/kg gavage daily) of the same molecule?
The value was 32.90%.

And the “Percent reduction in lymphocytes” value ([3]; BSM: BS 90 mg/kg gavage daily)?
The value was 35.63%.

And the “Percent reduction in monocytes” value ([3]; BSM: BS 90 mg/kg gavage daily)?
Its value is 42.86%.

What about the “Percent reduction in neutrophils” value ([3]; BSM: BS 90 mg/kg gavage daily) of the same molecule?
Its value is 16.67%.

What about the “HY7P, hydroxyproline content in the lungs” value ([4]; BS 90 mg/kg gavage daily) of the same molecule?
The value was 2.17 ± 0.19 µg/mL.

For `C[C@@H]1C[C@H]2[C@@H]3CCC4=CC(=O)C=C[C@]4(C)[C@@]3(F)[C@@H](O)C[C@]2(C)[C@@]1(O)C(=O)CO` [Dex, dexamethasone, reference compound], which Lung coefficient [1, 5] is on record?
The Lung coefficient was 0.93±0.09%.

And the Spleen coefficient [1, 5]?
Its Spleen coefficient is 0.41±0.06%.

And the BEect [2, 5]?
The BEect was -8.50 ± 1.05 mmol/L.

And the “HCO3^-” value [2, 5]?
Its value is 27.82 ± 1.08 mmol/L.

What about the PCO2 [2, 5] of the same molecule?
The PCO2 was 33.60±1.92 mmHg.

What about the “Absolute leukocyte count” value [3, 5] of the same molecule?
The value was 0.57±0.02 10^9/L.

And the “Absolute lymphocyte count” value [3, 5]?
The value was 0.46±0.03 10^9/L.

And the “Absolute monocyte count” value [3, 5]?
Its value is 0.03±0.01 10^9/L.

And the “Absolute neutrophil count” value [3, 5]?
Its value is 0.0±0.01 10^9/L.

And the “Percent reduction in leukocytes” value [3, 5]?
The value was 45.32%.

And the “Percent reduction in lymphocytes” value [3, 5]?
The value was 47.51%.

And the “Percent reduction in monocytes” value [3, 5]?
The value was 46.43%.

And the “Percent reduction in neutrophils” value [3, 5]?
The value was 68.52%.

What about the “HY7P, hydroxyproline content in the lungs” value [4, 5] of the same molecule?
The value was 2.25 ± 0.31 µg/mL.
